Test results published in US20260207563A1, “UREA COMPOUNDS AS ACTIVATORS OF POTASSIUM CHANNELS KV7.2/7.3 USEFUL IN THE TREATMENT OF CNS AND PNS DISORDERS” (ANGELINI PHARMA S.P.A., priority 2022, published 2026).

Experiments:
Format in all cases: cell-based
[1] = biological target: T1, homomeric KV7.4 channel (KCNQ4) (Homo sapiens, UniProt P56696); assay: Automated patch-clamp (Qube) counter-screening assay against KV7.4 channel; conditions: CHO-K1 cells expressing KV7.4; class by maximal shift in the Vhalf at 30 μM
T1 construct: host or cells: CHO-K1
In short: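 EC50 and maximal shift in half-activation voltage come from 4-parameter logistic fits of mean Vhalf shifts. The series had ten 1-in-3 concentrations, highest 30 μM, each tested in quadruplicate. Recordings used automated Qube patch clamp on a stable CHO-K1 line expressing KCNQ4, and selectivity was judged from the 30 μM Vhalf shift.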

[2] = biological target: T2, heteromeric KV7.3/KV7.5 channel (KCNQ3, KCNQ5) (Homo sapiens, UniProt O43525+Q9NR82); assay: Automated patch-clamp counter-screening against KV7.3/KV7.5 channel; conditions: HEK293 cells expressing Kv7.3/KV7.5; class by maximal shift in the Vhalf at 30 μM
T2 construct: host or cells: HEK293
In short: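 Potency came from a 4-parameter logistic fit of mean voltage-of-half-activation shifts, yielding EC50 and maximal shift; selectivity was judged on the shift at 30 μM. Compounds were applied at ten 3-fold dilutions from 30 μM in quadruplicate to HEK293 cells stably carrying Kv7.3 with tet-inducible Kv7.5.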

[3] = biological target: T3, heteromeric KV7.2/KV7.3 channels (KCNQ2, KCNQ3) (Homo sapiens, UniProt O43525+O43526); assay: Automated patch-clamp (Sophion Qube 384) potency assay against KV7.2/KV7.3 channels; conditions: CHO-K1/Kv7.2/Kv7.3 cells; for EC50: EC50 from concentration-response of shift in Vhalf, 10 concentrations up to 30 μM, read-out: Kv7.2/7.3 EC50; for Kv7.2/7.3 ΔV1/2: maximal shift in the Vhalf from the top of the curve
T3 construct: expressed in transfected cells; host or cells: CHO-K1
In short: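 Activator potency: EC50 from 4-parameter logistic fit of mean Vhalf shift across ten 1-in-3 dilutions starting at 30 μM (n=4), with DMSO (typically 0.3%) control. Currents recorded by leak-subtracted whole-cell clamp of stable CHO-K1 KV7.2/KV7.3 cells, held at −80 mV, stepped −100 to +20 mV then 0 mV tails.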

| Compound | Kv7.4 selectivity criteria [1] | Kv7.3/7.5 selectivity criteria [2] | EC50 [3] [nM] | Kv7.2/7.3 ΔV1/2 [3] [mV] |
| --- | --- | --- | --- | --- |
| O=C(NCc1ccnc(OCC(F)(F)F)c1)N[C@@H]1CCc2cc(F)c(F)cc21 [Compound 119] | A (Selective compounds showed Kv7.4 and/or Kv7.3/7.5 ΔV1/2 equal to or lower than 15 mV (letter A in table 3)) | B (Non-selective compounds showed Kv7.4 and/or Kv7.3/7.5 ΔV1/2 higher than 15 mV (letter B in table 3)) | 1080 | 36.41 |
| O=C(NCc1ccnc(OCC(F)(F)F)c1)N[C@H]1CCc2cc(F)c(F)cc21 [Compound 120] | B (Non-selective compounds showed Kv7.4 and/or Kv7.3/7.5 ΔV1/2 higher than 15 mV (letter B in table 3)) | A (Selective compounds showed Kv7.4 and/or Kv7.3/7.5 ΔV1/2 equal to or lower than 15 mV (letter A in table 3)) | 276 | 16.57 |
| O=C(NCc1ccnc(OCC(F)(F)F)c1)N[C@@H]1CCc2c(Cl)cccc21 [Compound 121] | B (Non-selective compounds showed Kv7.4 and/or Kv7.3/7.5 ΔV1/2 higher than 15 mV (letter B in table 3)) | B (Non-selective compounds showed Kv7.4 and/or Kv7.3/7.5 ΔV1/2 higher than 15 mV (letter B in table 3)) | 1560 | 38.54 |
| COc1ccc2c(c1)CCC2NC(=O)NCc1ccnc(OCC(F)(F)F)c1 (stereo not shown) [Compound 122] | A (Selective compounds showed Kv7.4 and/or Kv7.3/7.5 ΔV1/2 equal to or lower than 15 mV (letter A in table 3)) | A (Selective compounds showed Kv7.4 and/or Kv7.3/7.5 ΔV1/2 equal to or lower than 15 mV (letter A in table 3)) | 2710 | 26.22 |
| O=C(NCc1ccnc(OCC(F)(F)F)c1)N[C@H]1c2ccccc2C[C@@H]1O [Compound 123] | A (Selective compounds showed Kv7.4 and/or Kv7.3/7.5 ΔV1/2 equal to or lower than 15 mV (letter A in table 3)) | A (Selective compounds showed Kv7.4 and/or Kv7.3/7.5 ΔV1/2 equal to or lower than 15 mV (letter A in table 3)) | 6670 | 25.23 |
| CC(F)(F)c1cc(CNC(=O)N[C@@H]2CCc3ccc(F)cc32)ccn1 [Compound 124] | A (Selective compounds showed Kv7.4 and/or Kv7.3/7.5 ΔV1/2 equal to or lower than 15 mV (letter A in table 3)) | A (Selective compounds showed Kv7.4 and/or Kv7.3/7.5 ΔV1/2 equal to or lower than 15 mV (letter A in table 3)) | 11700 | 18.78 |
| COc1cc2c(cc1F)CCC2NC(=O)NCc1ccnc(OCC(F)(F)F)c1 (stereo not shown) [Compound 125] | A (Selective compounds showed Kv7.4 and/or Kv7.3/7.5 ΔV1/2 equal to or lower than 15 mV (letter A in table 3)) | A (Selective compounds showed Kv7.4 and/or Kv7.3/7.5 ΔV1/2 equal to or lower than 15 mV (letter A in table 3)) | 683 | 18.25 |
| Cc1ccc2c(c1)[C@H](NC(=O)NCc1ccnc(OCC(F)(F)F)c1)CC2 [Compound 126] | B (Non-selective compounds showed Kv7.4 and/or Kv7.3/7.5 ΔV1/2 higher than 15 mV (letter B in table 3)) | B (Non-selective compounds showed Kv7.4 and/or Kv7.3/7.5 ΔV1/2 higher than 15 mV (letter B in table 3)) | 3080 | 42.02 |
| O=C(NCc1ccnc(OCC(F)(F)F)c1)N[C@@H]1CCc2cc(Cl)ccc21 [Compound 127] | B (Non-selective compounds showed Kv7.4 and/or Kv7.3/7.5 ΔV1/2 higher than 15 mV (letter B in table 3)) | B (Non-selective compounds showed Kv7.4 and/or Kv7.3/7.5 ΔV1/2 higher than 15 mV (letter B in table 3)) | 1600 | 30.45 |
| COc1ccc2c(c1)[C@@H](NC(=O)NCc1ccnc(OCC(F)(F)F)c1)CC2 [Compound 128] | A (Selective compounds showed Kv7.4 and/or Kv7.3/7.5 ΔV1/2 equal to or lower than 15 mV (letter A in table 3)) | A (Selective compounds showed Kv7.4 and/or Kv7.3/7.5 ΔV1/2 equal to or lower than 15 mV (letter A in table 3)) | 397 | 15.68 |
